Results from patent US10260079B2, “Method for producing ergothioneine by using soybean cake powder as nitrogen source in a seed medium” (TIANJIN INSTITUTE OF INDUSTRIAL BIOTECHNOLOGY, CHINESE …, priority 2014, dated 2019).
Where “and” joins values, the source holds several entries; their conditions need not be identical. Identical values can stand only once. Like-named read-outs stand apart in the source and are kept apart here.

System: Pleurotus ostreatus mycelia CGMCC No. 6232
Experiment: Shake-flask fermentation, total content of ergothioneine in the fermentation broth by HPLC
Assay type: cell-based

N[C@@H](CCC(=O)O)C(=O)O [glutamic acid]
activation at 10 µM (Pleurotus ostreatus, CGMCC6232, 360 h, glutamic acid 10 μmol/L, read-out: content of ergothioneine improved compared with control group): 9.1%
Content of ergothioneine in fermentation broth (glutamic acid 1 μmol/L added in fermentation medium): 123.6 ± 0.92 mg/L
Content of ergothioneine in fermentation broth (glutamic acid 5 μmol/L added in fermentation medium): 128.8 ± 1.19 mg/L
Content of ergothioneine in fermentation broth (glutamic acid 10 μmol/L added in fermentation medium): 131.2 mg/L and 131.2 ± 2.62 mg/L
Content of ergothioneine in fermentation broth (glutamic acid 50 μmol/L added in fermentation medium): 124 ± 1.72 mg/L
Content of ergothioneine in fermentation broth (glutamic acid 100 μmol/L added in fermentation medium): 122.7 ± 1.63 mg/L

CC(C)C[C@H](N)C(=O)O [leucine]
activation at 100 µg/mL (Pleurotus ostreatus, CGMCC6232, 360 h, leucine 0.1 g/L, read-out: content of ergothioneine improved compared with control group): 11.9%
Content of ergothioneine in fermentation broth (leucine 0.02 g/L added in fermentation medium): 127 ± 1.23 mg/L
Content of ergothioneine in fermentation broth (leucine 0.05 g/L added in fermentation medium): 129.4 ± 2.17 mg/L
Content of ergothioneine in fermentation broth (leucine 0.1 g/L added in fermentation medium): 133.3 mg/L and 133.3 ± 2.5 mg/L
Content of ergothioneine in fermentation broth (leucine 0.25 g/L added in fermentation medium): 130.8 ± 2.46 mg/L
Content of ergothioneine in fermentation broth (leucine 0.5 g/L added in fermentation medium): 125.5 ± 1.36 mg/L

Cl.N [NH4Cl]
Content of ergothioneine in fermentation broth (NH4Cl 0.5 g/L added in fermentation medium): 127 ± 1.87 mg/L
Content of ergothioneine in fermentation broth (NH4Cl 1 g/L added in fermentation medium): 133.7 ± 1.04 mg/L
Content of ergothioneine in fermentation broth (NH4Cl 2 g/L added in fermentation medium): 139.2 ± 1.55 mg/L
content of ergothioneine improved compared with control group (NH4Cl 4 g/L): 24.4%
Content of ergothioneine in fermentation broth (NH4Cl 4 g/L added in fermentation medium): 155.4 mg/L and 155.4 ± 2.68 mg/L
Content of ergothioneine in fermentation broth (NH4Cl 8 g/L added in fermentation medium): 141.8 ± 0.68 mg/L
Content of ergothioneine in fermentation broth (NH4Cl 12 g/L added in fermentation medium): 128.6 ± 3.53 mg/L

OCC(O)CO [glycerol]
activation at 75000 µg/mL (Pleurotus ostreatus, CGMCC6232, 360 h, glycerol 75 g/L vs 50 g/L, casein peptone 50 g/L, read-out: content of ergothioneine improved compared with control group): 8.5%
Content of ergothioneine in fermentation broth (glycerol 65 g/L, casein peptone 50 g/L in fermentation medium (control glycerol 50 g/L)): 162.4 ± 2.67 mg/L
Content of ergothioneine in fermentation broth (glycerol 75 g/L, casein peptone 50 g/L in fermentation medium (control glycerol 50 g/L)): 170.2 mg/L and 170.2 ± 3.49 mg/L
Content of ergothioneine in fermentation broth (glycerol 85 g/L, casein peptone 50 g/L in fermentation medium (control glycerol 50 g/L)): 164.8 ± 3.41 mg/L
Content of ergothioneine in fermentation broth (glycerol 95 g/L, casein peptone 50 g/L in fermentation medium (control glycerol 50 g/L)): 160.1 ± 1.15 mg/L

O=C(O)CC(O)(CC(=O)O)C(=O)O [citric acid]
activation at 400 µg/mL (Pleurotus ostreatus, CGMCC6232, 360 h, citric acid 0.4 g/L, read-out: content of ergothioneine improved compared with control group): 10.4%
Content of ergothioneine in fermentation broth (citric acid 0.01 g/L added in fermentation medium): 126.9 ± 2.75 mg/L
Content of ergothioneine in fermentation broth (citric acid 0.05 g/L added in fermentation medium): 130.2 ± 1.31 mg/L
Content of ergothioneine in fermentation broth (citric acid 0.2 g/L added in fermentation medium): 135.4 ± 0.83 mg/L
Content of ergothioneine in fermentation broth (citric acid 0.4 g/L added in fermentation medium): 138.3 mg/L and 138.3 ± 2.49 mg/L
Content of ergothioneine in fermentation broth (citric acid 0.8 g/L added in fermentation medium): 128.4 ± 1.16 mg/L

NCCCC[C@H](N)C(=O)O [lysine]
Content of ergothioneine in fermentation broth: 124.8 ± 0.72 mg/L and 125.6 ± 2.03 mg/L and 128.9 ± 2.12 mg/L and 133.7 ± 1.51 mg/L and 135.1 ± 0.66 mg/L and 126.3 ± 2.67 mg/L
activation at 5000 µg/mL (Pleurotus ostreatus, CGMCC6232, 360 h, read-out: content of ergothioneine improved compared with control group): 13.4%

CSCC[C@H](N)C(=O)O [methionine]
activation at 15000 µM (Pleurotus ostreatus, CGMCC6232, 360 h, methionine 15 mmol/L added on the 4th day, read-out: content of ergothioneine improved compared with control group): 63.1%
activation at 15000 µM (Pleurotus ostreatus, CGMCC6232, 360 h, methionine 15 mmol/L, read-out: content of ergothioneine improved compared with control group): 49.4%
Content of ergothioneine in fermentation broth (methionine 3 mmol/L added in fermentation medium): 127.3 ± 3.47 mg/L
Content of ergothioneine in fermentation broth (methionine 9 mmol/L added in fermentation medium): 154.8 ± 3.31 mg/L
Content of ergothioneine in fermentation broth (methionine 15 mmol/L added in fermentation medium): 179.6 mg/L and 179.6 ± 4.17 mg/L
Content of ergothioneine in fermentation broth (methionine 15 mmol/L, timing for adding 0 d (before the fermentation)): 179.3 ± 4.23 mg/L
Content of ergothioneine in fermentation broth (methionine 15 mmol/L, timing for adding 2 d): 190.5 ± 2.84 mg/L
Content of ergothioneine in fermentation broth (methionine 15 mmol/L, timing for adding 4 d): 202.6 mg/L and 202.6 ± 5.01 mg/L
Content of ergothioneine in fermentation broth (methionine 15 mmol/L, timing for adding 6 d): 174.9 ± 3.73 mg/L
Content of ergothioneine in fermentation broth (methionine 15 mmol/L, timing for adding 8 d): 160.3 ± 5.29 mg/L
Content of ergothioneine in fermentation broth (methionine 15 mmol/L, timing for adding 10 d): 149.3 ± 3.27 mg/L
Content of ergothioneine in fermentation broth (methionine 25 mmol/L added in fermentation medium): 168.5 ± 4.53 mg/L
Content of ergothioneine in fermentation broth (methionine 35 mmol/L added in fermentation medium): 153.7 ± 3.2 mg/L
Content of ergothioneine in fermentation broth (methionine 45 mmol/L added in fermentation medium): 126.9 ± 2.81 mg/L

N[C@@H](CC(=O)O)C(=O)O [aspartic acid]
activation at 5000 µg/mL (Pleurotus ostreatus, CGMCC6232, 360 h, aspartic acid 5 g/L, read-out: content of ergothioneine improved compared with control group): 14.1%
Content of ergothioneine in fermentation broth (aspartic acid 0.05 g/L added in fermentation medium): 124.1 ± 3.07 mg/L
Content of ergothioneine in fermentation broth (aspartic acid 0.5 g/L added in fermentation medium): 128 ± 2.51 mg/L
Content of ergothioneine in fermentation broth (aspartic acid 1 g/L added in fermentation medium): 130.1 ± 4.28 mg/L
Content of ergothioneine in fermentation broth (aspartic acid 5 g/L added in fermentation medium): 135.9 mg/L and 135.9 ± 3.64 mg/L
Content of ergothioneine in fermentation broth (aspartic acid 7 g/L added in fermentation medium): 127.9 ± 2.59 mg/L
Content of ergothioneine in fermentation broth (aspartic acid 9 g/L added in fermentation medium): 123.8 ± 2.88 mg/L

Cc1ncc(C[n+]2csc(CCO)c2C)c(N)n1 [VB1, vitamin B1]
Content of ergothioneine in fermentation broth (VB1 0.01 g/L added in fermentation medium): 122.7 ± 1.02 mg/L
Content of ergothioneine in fermentation broth (VB1 0.05 g/L added in fermentation medium): 128.8 ± 2.41 mg/L
content of ergothioneine improved compared with control group (VB1 0.1 g/L): 11.2%
Content of ergothioneine in fermentation broth (VB1 0.1 g/L added in fermentation medium): 132.2 mg/L and 132.2 ± 1.39 mg/L
Content of ergothioneine in fermentation broth (VB1 0.2 g/L added in fermentation medium): 129.6 ± 2.67 mg/L
Content of ergothioneine in fermentation broth (VB1 0.4 g/L added in fermentation medium): 127 ± 1.86 mg/L
Content of ergothioneine in fermentation broth (VB1 0.8 g/L added in fermentation medium): 123.3 ± 3.03 mg/L

[Cl-].[Na+] [NaCl]
content of ergothioneine improved compared with control group: 6.63%

N[C@@H](Cc1c[nH]cn1)C(=O)O [histidine]
activation at 1000 µM (Pleurotus ostreatus, CGMCC6232, 360 h, histidine 1 mmol/L, read-out: content of ergothioneine improved compared with control group): 7.7%

C[N+](C)(C)CC(=O)O [betaine]
activation at 150000 µM (Pleurotus ostreatus, CGMCC6232, 360 h, betaine 150 mmol/L, read-out: content of ergothioneine improved compared with control group): 22%
Content of ergothioneine in fermentation broth (betaine 50 mmol/L added in fermentation medium): 125.3 ± 2.67 mg/L
Content of ergothioneine in fermentation broth (betaine 100 mmol/L added in fermentation medium): 130.1 ± 2.14 mg/L
Content of ergothioneine in fermentation broth (betaine 150 mmol/L added in fermentation medium): 146.6 mg/L and 146.6 ± 2.64 mg/L
Content of ergothioneine in fermentation broth (betaine 200 mmol/L added in fermentation medium): 129.9 ± 3.34 mg/L
Content of ergothioneine in fermentation broth (betaine 250 mmol/L added in fermentation medium): 124.8 ± 1.38 mg/L

NH4NO3
Content of ergothioneine in fermentation broth: 127.2 ± 1.18 mg/L and 134 ± 2.46 mg/L and 140.7 ± 3.74 mg/L and 148 ± 0.82 mg/L and 141.4 ± 1.98 mg/L and 129.7 ± 1.03 mg/L
content of ergothioneine improved compared with control group: 18.5%

Nc1nc2ncc(CNc3ccc(C(=O)N[C@@H](CCC(=O)O)C(=O)O)cc3)nc2c(=O)[nH]1 [folic acid]
activation at 640 µg/mL (Pleurotus ostreatus, CGMCC6232, 360 h, folic acid 0.64 g/L, read-out: content of ergothioneine improved compared with control group): 25%
Content of ergothioneine in fermentation broth (folic acid 0.08 g/L added in fermentation medium): 121.4 ± 1.36 mg/L
Content of ergothioneine in fermentation broth (folic acid 0.16 g/L added in fermentation medium): 127.1 ± 2.24 mg/L
Content of ergothioneine in fermentation broth (folic acid 0.32 g/L added in fermentation medium): 136.9 ± 4.14 mg/L
Content of ergothioneine in fermentation broth (folic acid 0.64 g/L added in fermentation medium): 148.6 mg/L and 148.6 ± 1.54 mg/L
Content of ergothioneine in fermentation broth (folic acid 1.28 g/L added in fermentation medium): 143.8 ± 1.77 mg/L
Content of ergothioneine in fermentation broth (folic acid 2.56 g/L added in fermentation medium): 122.2 ± 3.03 mg/L

span 80
Content of ergothioneine in fermentation broth (span 80 0.2 g/L added in fermentation medium): 124.7 ± 2.59 mg/L
Content of ergothioneine in fermentation broth (span 80 0.5 g/L added in fermentation medium): 156.3 ± 1.92 mg/L
Content of ergothioneine in fermentation broth (span 80 1 g/L added in fermentation medium): 175.1 ± 2.83 mg/L
content of ergothioneine improved compared with control group (span 80 3 g/L): 69.7%
Content of ergothioneine in fermentation broth (span 80 3 g/L added in fermentation medium): 196.5 mg/L and 196.5 ± 3.54 mg/L
Content of ergothioneine in fermentation broth (span 80 5 g/L added in fermentation medium): 184.3 ± 3.7 mg/L
Content of ergothioneine in fermentation broth (span 80 10 g/L added in fermentation medium): 129.6 ± 1.18 mg/L

N[C@@H](CS)C(=O)O [cysteine]
activation at 15000 µM (Pleurotus ostreatus, CGMCC6232, 360 h, cysteine 15 mmol/L added on the 6th day, read-out: content of ergothioneine improved compared with control group): 56%
activation at 15000 µM (Pleurotus ostreatus, CGMCC6232, 360 h, cysteine 15 mmol/L, read-out: content of ergothioneine improved compared with control group): 46%
Content of ergothioneine in fermentation broth (cysteine 2 mmol/L added in fermentation medium): 124.8 ± 2.03 mg/L
Content of ergothioneine in fermentation broth (cysteine 9 mmol/L added in fermentation medium): 140.4 ± 1.83 mg/L
Content of ergothioneine in fermentation broth (cysteine 15 mmol/L added in fermentation medium): 175.5 mg/L and 175.5 ± 1.36 mg/L
Content of ergothioneine in fermentation broth (cysteine 15 mmol/L, timing for adding 0 d (before the fermentation)): 170.3 ± 1.92 mg/L
Content of ergothioneine in fermentation broth (cysteine 15 mmol/L, timing for adding 2 d): 177.4 ± 2.33 mg/L
Content of ergothioneine in fermentation broth (cysteine 15 mmol/L, timing for adding 4 d): 186.1 ± 1.67 mg/L
Content of ergothioneine in fermentation broth (cysteine 15 mmol/L, timing for adding 6 d): 193.8 mg/L and 193.8 ± 4.16 mg/L
Content of ergothioneine in fermentation broth (cysteine 15 mmol/L, timing for adding 8 d): 172.1 ± 1.73 mg/L
Content of ergothioneine in fermentation broth (cysteine 15 mmol/L, timing for adding 10 d): 156.5 ± 2.52 mg/L
Content of ergothioneine in fermentation broth (cysteine 25 mmol/L added in fermentation medium): 164.6 ± 4.31 mg/L
Content of ergothioneine in fermentation broth (cysteine 35 mmol/L added in fermentation medium): 148.1 ± 2.74 mg/L
Content of ergothioneine in fermentation broth (cysteine 45 mmol/L added in fermentation medium): 126.1 ± 2.99 mg/L
